Data as given in US6369083B1, “2-methoxyimino-2 (pyrinyloxymethyl) phenyl acetamides with polyether derivatives on the pyridine ring” (Dow AgroSciences LLC, priority 1998, dated 2002).

Key:
Format in all cases: in vivo
Erysiphe graminis = assay: Powdery Mildew of Wheat (ERYSGT); settings: wheat (cultivar Monon), inoculated, sprayed at 25 ppm after 48 hours
Protocol: Compound Formulation: […] Final treatment volumes were obtained by adding nine volumes 0.05kOO aqueous Tween-20 or Triton X-100, depending upon the pathogen. Powdery Mildew of Wheat (Erysiphe graminis-[…]): Wheat (cultivar Monon) was grown in a soilless peat-based potting mixture (Metromix) until the seedlings were 1-2 leaf (BBCH 12). These plants were then inoculated with Erysiphe graminis by dusting spores from stock plants onto the test plants. After 48 hours the plants were sprayed to run off with the test compound at a rate of 25 ppm and then kept in the greenhouse until disease developed on the untreated control plants. The following table presents the activity of typical compounds of the present invention when evaluated in these experiments. The effectiveness of the test compounds in controlling disease was rated using the following scale: […]

Leptosphaeria nodorum = assay: Glume blotch of wheat (LEPTNO); settings: wheat (cultivar Monon), sprayed at 100 ppm, inoculated after 24 hours
Protocol: Compound Formulation: […] Final treatment volumes were obtained by adding nine volumes 0.05kOO aqueous Tween-20 or Triton X-100, depending upon the pathogen. Glume blotch of wheat (Leptosphaeria nodorum-[…]): Wheat (cultivar Monon) was grown from seed in a soilless peat-based potting mixture (Metromix) until the seedlings were 1-2 leaf (BBCH 12). These plants were then sprayed to run off with the test compound at a rate of 100 ppm. After 24 hours the test plants were inoculated with an aqueous spore suspension of Leptosphaeria nodorum. The plants were then transferred to the greenhouse until disease developed on the untreated control plants. Brown rust (Puccinia recondita-PUCCRT): Wheat (cultivar Monon) was grown from seed in a soilless peat-based potting mixture (Metromix) until the seedlings were 1-2 leaf (BBCH 12). These plants were then sprayed to run off with the test compound at a rate of 100 ppm. After 24 hours the test plants were inoculated with an aqueous spore suspension of Puccinia recondita. The plants were then transferred to the greenhouse until disease developed on the untreated control plants. The following table presents the activity of typical compounds of the present invention when evaluated in these experiments. The effectiveness of the test compounds in controlling disease was rated using the following scale: […]

Plasmopara viticola = assay: Downy Mildew of Grape (PLASVI), 96 hour protectant; settings: grape vines (cultivar Carignane), sprayed at 100 ppm, inoculated after 96 hours (protectant)
Protocol: Compound Formulation: […] Final treatment volumes were obtained by adding nine volumes 0.05kOO aqueous Tween-20 or Triton X-100, depending upon the pathogen. Downy Mildew of Grape (Plasmogara viticola-[…]) (96 Hour Protectant): Vines (cultivar Carignane) were grown from seed in a soilless peat-based potting mixture (Metromix) until the seedlings were 10-20 cm tall. These plants were then sprayed to run off with the test compound at a rate of 100 ppm. After 96 hours the test plants were inoculated by spraying with an aqueous sporangia suspension of Plasmopara viticola. The plants were then transferred to the greenhouse until disease developed on the untreated control plants. The following table presents the activity of typical compounds of the present invention when evaluated in these experiments. The effectiveness of the test compounds in controlling disease was rated using the following scale: […]

Septoria tritici = assay: Septoria leaf spot (SEPTTR); settings: wheat (cultivar Monon), sprayed at 100 ppm, inoculated after 24 hours
Protocol: Compound Formulation: […] Final treatment volumes were obtained by adding nine volumes 0.05kOO aqueous Tween-20 or Triton X-100, depending upon the pathogen. Septoria leaf spot (Septoria tritici-[…]): Wheat (cultivar Monon) was grown from seed in a soilless peat-based potting mixture (Metromix) until the seedlings were 1-2 leaf (BECH 12). These plants were then sprayed to run off with the test compound at a rate of 100 ppm. After 24 hours the test plants were inoculated with an aqueous spore suspension of Septoria tritici. The plants were then transferred to the greenhouse until disease developed on the untreated control plants. The following table presents the activity of typical compounds of the present invention when evaluated in these experiments. The effectiveness of the test compounds in controlling disease was rated using the following scale: […]

For `CCOc1cccc2nc(Sc3cccc(OCc4ccccc4C(=NOC)C(=O)NC)n3)sc12` [Compound 13], the “ERYSGT control of plant disease” value (Erysiphe graminis) was “− (− = 0-24% control of plant disease)”, the “LEPTNO control of plant disease” value (Leptosphaeria nodorum) was “+ (+ = 25-74% control of plant disease)” and the “PLASVI control of plant disease” value (Plasmopara viticola) was “+ (+ = 25-74% control of plant disease)”.

In the case of `CCOCCOCCOc1nc(OCc2ccccc2C(=NOC)C(=O)NC)c(Cl)cc1Cl` [Compound 16], the “ERYSGT control of plant disease” value (Erysiphe graminis) is reported as “++ (++ = 75-100 % control of plant disease)”, the “LEPTNO control of plant disease” value (Leptosphaeria nodorum) is reported as “+ (+ = 25-74% control of plant disease)” and the “PLASVI control of plant disease” value (Plasmopara viticola) is reported as “++ (++ = 75-100 % control of plant disease)”.

`CCOCCOc1cccc(OCc2ccccc2C(=NOC)C(=O)NC)n1` [Compound 17] was tested, and the “ERYSGT control of plant disease” value (Erysiphe graminis) was “+ (+ = 25-74% control of plant disease)”, the “LEPTNO control of plant disease” value (Leptosphaeria nodorum) was “++ (++ = 75-100 % control of plant disease)” and the “PLASVI control of plant disease” value (Plasmopara viticola) was “++ (++ = 75-100 % control of plant disease)”.

For `CCOCCOc1nc(OCc2ccccc2C(=NOC)C(=O)NC)c(Cl)cc1Cl` [Compound 18], the “ERYSGT control of plant disease” value (Erysiphe graminis) was “+ (+ = 25-74% control of plant disease)”, the “LEPTNO control of plant disease” value (Leptosphaeria nodorum) was “++ (++ = 75-100 % control of plant disease)” and the “PLASVI control of plant disease” value (Plasmopara viticola) was “++ (++ = 75-100 % control of plant disease)”.

In the case of `CCCOCCOCCOc1nc(OCc2ccccc2C(=NOC)C(=O)NC)c(Cl)cc1Cl` [Compound 19], the “ERYSGT control of plant disease” value (Erysiphe graminis) is reported as “+ (+ = 25-74% control of plant disease)”, the “LEPTNO control of plant disease” value (Leptosphaeria nodorum) is reported as “++ (++ = 75-100 % control of plant disease)” and the “PLASVI control of plant disease” value (Plasmopara viticola) is reported as “+ (+ = 25-74% control of plant disease)”.

For `CNC(=O)C(=NOC)c1ccccc1COc1cccc(OC(COC)OC)n1` (centres unmarked) [Compound 22], the “ERYSGT control of plant disease” value (Erysiphe graminis) was “++ (++ = 75-100 % control of plant disease)”, the “LEPTNO control of plant disease” value (Leptosphaeria nodorum) was “+ (+ = 25-74% control of plant disease)” and the “PLASVI control of plant disease” value (Plasmopara viticola) was “+ (+ = 25-74% control of plant disease)”.

`CCOCCOc1nc(OCc2ccccc2C(=NOC)C(=O)NC)ccc1Cl` [Compound 24, Benzeneacetamide, 2-[[[5-chloro-6-(2-ethoxyethoxy)-2-pyridinyl]oxy]methyl]-α-(methoxyimino)-N-methyl-] was tested, and the “ERYSGT control of plant disease” value (Erysiphe graminis) was “++ (++ = 75-100 % control of plant disease)”, the “LEPTNO control of plant disease” value (Leptosphaeria nodorum) was “+ (+ = 25-74% control of plant disease)” and the “PLASVI control of plant disease” value (Plasmopara viticola) was “++ (++ = 75-100 % control of plant disease)”.

With `CNC(=O)C(=NOC)c1ccccc1COc1cccc(SCCSC(C)(C)C)n1` [Compound 52] the “ERYSGT control of plant disease” value (Erysiphe graminis) was “++ (++ = 75-100 % control of plant disease)”, the “LEPTNO control of plant disease” value (Leptosphaeria nodorum) was “+ (+ = 25-74% control of plant disease)” and the “PLASVI control of plant disease” value (Plasmopara viticola) was “++ (++ = 75-100 % control of plant disease)”.

In the case of `CCOCCCOc1cccc(OCc2ccccc2C(=NOC)C(=O)NC)n1` [Compound 55], the “ERYSGT control of plant disease” value (Erysiphe graminis) is reported as “+ (+ = 25-74% control of plant disease)” and the “LEPTNO control of plant disease” value (Leptosphaeria nodorum) is reported as “+ (+ = 25-74% control of plant disease)”.

With `CCCCC(CC)COCCOc1cccc(OCc2ccccc2C(=NOC)C(=O)NC)n1` (centres unmarked) [Compound 56] the “SEPTTR control of plant disease” value (Septoria tritici) was “++ (++ = 75-100 % control of plant disease)” and the “PLASVI control of plant disease” value (Plasmopara viticola) was “++ (++ = 75-100 % control of plant disease)”.

For `CNC(=O)C(=NOC)c1ccccc1COc1cccc(OCCOC2CCC2)n1` [Compound 58], the “SEPTTR control of plant disease” value (Septoria tritici) was “++ (++ = 75-100 % control of plant disease)” and the “PLASVI control of plant disease” value (Plasmopara viticola) was “++ (++ = 75-100 % control of plant disease)”.

In the case of `CCCOCCOc1cccc(OCc2c(Cl)cccc2C(=NOC)C(=O)NC)n1` [Compound 60], the “SEPTTR control of plant disease” value (Septoria tritici) is reported as “++ (++ = 75-100 % control of plant disease)” and the “PLASVI control of plant disease” value (Plasmopara viticola) is reported as “++ (++ = 75-100 % control of plant disease)”.

For `CCCCCOCCOc1cccc(OCc2ccccc2C(=NOC)C(=O)NC)n1` [Compound 61], the “SEPTTR control of plant disease” value (Septoria tritici) was “++ (++ = 75-100 % control of plant disease)” and the “PLASVI control of plant disease” value (Plasmopara viticola) was “++ (++ = 75-100 % control of plant disease)”.

In the case of `CNC(=O)C(=NOC)c1ccccc1COc1cccc(OCCOC2CCCCC2)n1` [Compound 62], the “SEPTTR control of plant disease” value (Septoria tritici) is reported as “+ (+ = 25-74% control of plant disease)” and the “PLASVI control of plant disease” value (Plasmopara viticola) is reported as “++ (++ = 75-100 % control of plant disease)”.

For `CCOc1ccccc1Oc1cccc(OCc2ccccc2C(=NOC)C(=O)NC)n1` [Compound 64], the “SEPTTR control of plant disease” value (Septoria tritici) was “++ (++ = 75-100 % control of plant disease)” and the “PLASVI control of plant disease” value (Plasmopara viticola) was “++ (++ = 75-100 % control of plant disease)”.

In the case of `CCOCCCCOc1cccc(OCc2ccccc2C(=NOC)C(=O)NC)n1` [Compound 65], the “SEPTTR control of plant disease” value (Septoria tritici) is reported as “++ (++ = 75-100 % control of plant disease)” and the “PLASVI control of plant disease” value (Plasmopara viticola) is reported as “++ (++ = 75-100 % control of plant disease)”.

With `CNC(=O)C(=NOC)c1ccccc1COc1cccc(OCCCCCOCc2ccccc2)n1` [Compound 66] the “SEPTTR control of plant disease” value (Septoria tritici) was “++ (++ = 75-100 % control of plant disease)” and the “PLASVI control of plant disease” value (Plasmopara viticola) was “++ (++ = 75-100 % control of plant disease)”.

In the case of `CCOc1ccc(Oc2cccc(OCc3ccccc3C(=NOC)C(=O)NC)n2)cc1` [Compound 68], the “SEPTTR control of plant disease” value (Septoria tritici) is reported as “+ (+ = 25-74% control of plant disease)” and the “PLASVI control of plant disease” value (Plasmopara viticola) is reported as “++ (++ = 75-100 % control of plant disease)”.

In the case of `CCCCCCOCCOc1cccc(OCc2ccccc2C(=NOC)C(=O)NC)n1` [Compound 70], the “SEPTTR control of plant disease” value (Septoria tritici) is reported as “+ (+ = 25-74% control of plant disease)” and the “PLASVI control of plant disease” value (Plasmopara viticola) is reported as “+ (+ = 25-74% control of plant disease)”.

With `CNC(=O)C(=NOC)c1ccccc1COc1cccc(OCCOCC2CO2)n1` (centres unmarked) [Compound 74] the “SEPTTR control of plant disease” value (Septoria tritici) was “++ (++ = 75-100 % control of plant disease)”.

For `CCCCCOCCOc1cccc(OCc2c(F)cccc2C(=NOC)C(=O)NC)n1` [Compound 75], the “SEPTTR control of plant disease” value (Septoria tritici) was “++ (++ = 75-100 % control of plant disease)”.

For `CCCCCOCCOc1cccc(OCc2c(Cl)cccc2C(=NOC)C(=O)NC)n1` [Compound 76], the “SEPTTR control of plant disease” value (Septoria tritici) was “++ (++ = 75-100 % control of plant disease)”.

With `CCOCCCOc1cccc(OCc2c(F)cccc2C(=NOC)C(=O)NC)n1` [Compound 77] the “SEPTTR control of plant disease” value (Septoria tritici) was “++ (++ = 75-100 % control of plant disease)”.

With `CCOCCCOc1cccc(OCc2c(Cl)cccc2C(=NOC)C(=O)NC)n1` [Compound 78] the “SEPTTR control of plant disease” value (Septoria tritici) was “++ (++ = 75-100 % control of plant disease)”.

In the case of `CNC(=O)C(=NOC)c1cccc(F)c1COc1cccc(OCCCOC(C)C)n1` [Compound 79], the “SEPTTR control of plant disease” value (Septoria tritici) is reported as “++ (++ = 75-100 % control of plant disease)”.

`CNC(=O)C(=NOC)c1cccc(Cl)c1COc1cccc(OCCCOC(C)C)n1` [Compound 80] was tested, and the “SEPTTR control of plant disease” value (Septoria tritici) was “++ (++ = 75-100 % control of plant disease)”.

`CNC(=O)C(=NOC)c1ccccc1COc1cccc(Oc2ccccc2OC)n1` [Compound 81] was tested, and the “SEPTTR control of plant disease” value (Septoria tritici) was “+ (+ = 25-74% control of plant disease)”.

With `CNC(=O)C(=NOC)c1ccccc1COc1cccc(OCc2ccccc2OC)n1` [Compound 82] the “SEPTTR control of plant disease” value (Septoria tritici) was “++ (++ = 75-100 % control of plant disease)”.

For `CNC(=O)C(=NOC)c1ccccc1COc1cccc(OCc2ccc(OC)cc2)n1` [Compound 83], the “SEPTTR control of plant disease” value (Septoria tritici) was “++ (++ = 75-100 % control of plant disease)”.

With `CCOc1ccc(Sc2cccc(OCc3ccccc3C(=NOC)C(=O)NC)n2)cc1` [Compound 85] the “SEPTTR control of plant disease” value (Septoria tritici) was “− (− = 0-24% control of plant disease)”.

In the case of “Benzeneacetamide, 2-[[[6-(2-(2-ethoxyethoxy)ethoxy) -2-pyridinyl]oxy]methyl]-α-(methoxyimino)-N-methyl- [Compound 21]”, the “LEPTNO control of plant disease” value (Leptosphaeria nodorum) is reported as “+ (+ = 25-74% control of plant disease)” and the “PLASVI control of plant disease” value (Plasmopara viticola) is reported as “++ (++ = 75-100 % control of plant disease)”.
